Measured values from ChEMBL document CHEMBL1145120, “Molecular modeling of the three-dimensional structure of dopamine 3 (D3) subtype receptor: discovery of novel and potent D3 ligands through a hybrid pharmacophore- and structure-based database searching approach” (J Med Chem, 2003).

Key:
D(3) dopamine receptor [1] = biological target: T1, D(3) dopamine receptor (Homo sapiens, UniProt P35462)
D(3) dopamine receptor [2] = biological target: T1, D(3) dopamine receptor; assay: biochemical
D(3) dopamine receptor [3] = biological target: T1, D(3) dopamine receptor; assay: Compound was measured for its ability to compete with [3H]spiperone binding to the human Dopamine receptor D3 transfected in CHO cells; format: cell-based
D(3) dopamine receptor [4] = biological target: T1, D(3) dopamine receptor; remark: listed apart in the source

T1 sequence (P35462 whole entry): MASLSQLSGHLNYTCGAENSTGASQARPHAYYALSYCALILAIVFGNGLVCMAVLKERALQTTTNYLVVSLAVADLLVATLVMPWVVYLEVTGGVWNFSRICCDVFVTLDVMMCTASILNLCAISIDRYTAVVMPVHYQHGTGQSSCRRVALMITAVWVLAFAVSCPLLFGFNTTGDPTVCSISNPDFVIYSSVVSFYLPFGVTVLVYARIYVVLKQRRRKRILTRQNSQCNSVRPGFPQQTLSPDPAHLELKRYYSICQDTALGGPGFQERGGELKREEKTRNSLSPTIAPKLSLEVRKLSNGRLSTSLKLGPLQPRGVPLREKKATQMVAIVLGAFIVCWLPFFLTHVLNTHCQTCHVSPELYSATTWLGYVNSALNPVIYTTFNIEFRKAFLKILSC

| SMILES | Ki (D(3) dopamine receptor [1]) [nM] | also measured |
| --- | --- | --- |
| O=C(OC1(c2nccc3ccccc23)CCN(CCc2ccccc2)CC1)c1ccccc1 | 1000 |  |
| CCC(=O)OC1(c2ccccc2)CCN(CCC(=O)c2ccccc2)CC1C (centres undefined) | 10000 |  |
| CCCCN(CC)CC(C(C)=O)C1=C(O)OC2C=CC=CC2C1=O (centres undefined) | 10000 |  |
| c1ccc2c3c([nH]c2c1)CCN1CCN(CCc2ccncc2)CC31 (centres undefined) | 10000 |  |
| CCn1c2ccccc2c2cc(NCCCN(C)C)ccc21 | 10000 |  |
| CCCN(CCC)CN1C(=O)c2ccccc2C1=O | 10000 |  |
| CCCCN1CN(CCCC)CN(C(=S)c2c(Cl)cccc2Cl)C1 | 10000 |  |
| Cc1ccc(C)c2c1Sc1c(ccc3ccccc13)N2CCCN(C)C | 442 |  |
| CCC(=O)OC1(c2ccccc2)CCN(CCCC(=O)c2ccccc2)CC1 | 429 |  |
| CCCCN1CSC(=S)N(Cc2ccccc2)C1 | 10000 |  |
| O=C(CCCCN1CCN2c3ccccc3CCC2C1)c1ccccc1 (centres undefined) | 297 |  |
| CCCN(CCC)CCC(O)c1cc2c(c3ccccc13)CCCC2 (centres undefined) | 1260 |  |
| CCOc1ccc(NC(=O)C2CCCN(CCc3ccccc3)C2)cc1 (centres undefined) | 10000 |  |
| CCCCN(CCCC)Cc1c(C)nc2cc(OC)ccc2c1O | 10000 |  |
| CCCCCN1CCN(C(CC(=O)c2ccccc2)C(=O)c2ccccc2)CC1 (centres undefined) | 10000 |  |
| CCCN(CCC)C1CCc2cc3c(cc2C1)OCC3 (centres undefined) |  | Ki (D(3) dopamine receptor [2]): 13 nM |
| CCCN[C@@H]1CCc2c(OC)cccc2[C@@H]1C |  | Ki (D(3) dopamine receptor [2]): 70 nM |

| SMILES | Ki (D(3) dopamine receptor [1]) [nM] | also measured |
| --- | --- | --- |
| CCCN1CCOC2c3cc(O)ccc3OC[C@H]21 (some centres undefined) |  | Ki (D(3) dopamine receptor [3]): 1.1 nM |
| OC(CCCN1CCN2CCc3[nH]c4ccccc4c3C2C1)c1ccc(F)cc1 (centres undefined) | 2410 |  |
| CCCCN1C/C(=C\c2ccc(Br)cc2)C(=O)/C(=C/c2ccc(Br)cc2)C1 | 1000 |  |
| O=C(CCCN1CCN2c3ccccc3CCC2C1)c1ccc(F)cc1 (centres undefined) | 83.5 |  |
| Cc1ccc2c(c1)Sc1c(ccc3ccccc13)N2CCCN(C)C | 1420 |  |
| N#CCCN(CCCN1CCOCC1)CN1C(=O)c2ccccc2C1=O | 10000 |  |
| O=C(CCN1CCN2c3ccccc3CCC2C1)c1ccc(F)cc1 (centres undefined) | 465 |  |
| CCN(CC)CCCN(C)Cc1c(-c2ccccc2)oc(-c2ccccc2)c1Cl | 1380 |  |
| OC1(c2ccc(Cl)cc2)CCN(Cc2c[nH]c3ccccc23)CC1 |  | Ki (D(3) dopamine receptor [2]): 60 nM |
| CCCCCCCN1CCC(C(=O)CC)(c2cccc(O)c2)CC1 | 2610 |  |
| CC(=O)NCC1(c2ccccc2)CCN(CCCC(=O)c2ccc(F)cc2)CC1 [ACEPERONE] | 10000 |  |
| CN(C)C(=O)C1(c2ccc(Cl)cc2)CCN(CCCC(=O)c2ccc(F)cc2)CC1 [AMIPERONE] | 43.2 |  |
| O=C(CCCN1CCN2Cc3[nH]c4ccccc4c3CC2C1)c1ccc(F)cc1 (centres undefined) [BIRIPERONE] | 11 |  |
| CCN(CC)CCNC(=O)c1cc(Cl)c(N)cc1OC [METOCLOPRAMIDE] |  | Ki (D(3) dopamine receptor [2]): 27 nM |
| CCCCN1CCCC1CNC(=O)c1cc(C#N)c2ccccc2c1OC (centres undefined) [NAFADOTRIDE] |  | Ki (D(3) dopamine receptor [4]): 0.81 nM |
| O=c1[nH]c2ccccc2n1CCCN1CCN(C(c2ccccc2)c2ccccc2)CC1 [OXATOMIDE] | 62.7 |  |
| CCN1CCC[C@H]1CNC(=O)c1c(O)c(Cl)cc(Cl)c1OC [RACLOPRIDE] |  | Ki (D(3) dopamine receptor [3]): 3.7 nM |
